One experiment has as its system rat uterus. In words: Effects on the Rat Uterus (Test F). Conditions: for EC50: read-out: Activity value, Test F: Effects on Rat Uterus (ED50, response of 50% that of carbachol). How it is done: F. Evaluation of the Effects of Prostaglandin Analogs III on the Rat Uterus
The uterine stimulant effect of test compounds is determined in segments of uterus obtained from rats (140-160 g) pretreated subcutaneously with 1 mg/kg of diethylstibesterol 18 hr before the experiment. The tissues are placed in 10 ml chambers filled with de-Jalon solution at 29° C. and bubbled with 95% O2 and 5% CO2, and prepared for isometric recording with force displacement transducers. Preparations are stretched to an initial tension of 1 g and are left undisturbed for 30 min, after which two responses to 1 mcg/ml of carbachol added to the bath at a 10 min interval, are obtained (the value of the second response is recorded). Responses to increasing concentrations of the test compound (0.001 to 10.0 mcg/ml with one log intervals) are then recorded every 10 min. Preparations are washed four times after each response. All doses of drugs are administered in a 0.1 ml volume. Since it has been observed that the magnitude of the second response to carbachol, which is approximately 10% greater than the first, is close to the maximal response of the tissue, such value is taken as a measure of the sensititity of the particular segment. Responses to each concentration of the test compound are expressed in terms of percentage of the second response to carbachol and the ED50 (dose producing a response of 50% that of carbachol) is calculated graphically. Activity is scored according to the following scale: […]

The subject of another experiment is blood pressure. In words: Effects on Blood Pressure and Heart Rate in the Anesthetized Cat (Test D). The settings on record: Felis catus, iv, i.v. 0.01 to 10.0 mcg/kg, scored on hypotension, read-out: Activity value, Test D: Normal Feline Blood Pressure and Heart Rate (ED50 mmHg). Format: in vivo. The protocol:
D. Evaluation of the Effects of Prostaglandin Analogs III on Blood Pressure and Heart Rate in the Anesthetized Cat
The acute effects of test compounds on blood pressure and heart rate were determined in cats of either sex anesthetized with a mixture of pentobarbital sodium (35 mg/kg, i.v.) and barbital sodium (100 mg/kg, i.v.). Cannulas were placed in the trachea to allow adequate spontaneous ventilation, in a femoral artery for blood pressure recording with a strain gage transducer, and in a saphenous vein for drug administration. Heart rate was recorded by means of a cardiotachometer driven by the R wave of the electrocardiogram. After a period of 10 min of stable recordings of blood pressure and heart rate, the test compound was administered intravenously at doses increasing from 0.01 to 10.0 mcg/kg, spaced one log and injected at 10 min intervals. All doses were injected in a volume of 0.1 ml/kg. Modifications of blood pressure and heart rate induced by the test compound were expressed both in absolute units (mmHg and beats/min) and as percent of values recorded immediately before administration of each dose. Biphasic responses were tabulated in the order in which they occur. The direction of the observed changes was also noted (+ for increase and - for decrease).
Activity of compounds in this test was judged only on the basis of the degree of hypotension observed. Thus, the ED50 mmHg (dose decreasing blood pressure by 50 mmHg) was calculated graphically and the compound scored according to the following scale: […]

The test system of experiment [1] is blood pressure (hypertensive rat). In words: Effects on Blood Pressure in the Hypertensive Rat (Test E). It is filed as in vivo. On the set-up: key: 0: Not significant at any time interval; 1: Significant at one time interval; 2: Significant at two time intervals; 3: Significant at three time intervals; 4: Significant at all four intervals. The settings on record: 1 mg/kg intraperitoneal, 2, 4, 6 and 8 hr. How it is done: E. Evaluation of the Effects of Prostaglandin Analogs III on Blood Pressure in the Hypertensive Rat
The acute antihypertensive activity of test compounds is determined in rats made hypertensive by the procedure of Grollman (A. Proc. Soc. Exper. Biol. Med., 57:102, [1944]). Female rats weighing between 60 and 100 g are anesthetized with ether, the right kidney approached through a flank retroperitoneal incision, decapsulated and tied with a figure-of-eight ligature. The animals are left to recover and two weeks later are again anesthetized and the contralateral kidney removed. Four weeks after the second operation the rats are subjected to indirect blood pressure measurements and those showing systolic pressure values greater than 160 mmHg are selected for drug testing.
Blood pressure is measured in the tail with an inflatable occluding cuff placed at the base of the extremity and a pulse detector located distally. The cuff is inflated to approximately 300 mmHg and is slowly deflated until pulsations appear, indicating the level of systolic pressure; diastolic pressure is not recorded by this procedure. All measurements are carried out in unanesthetized, unsedated animals maintained in a warm environment during the recording procedure and for at least 6 hr before. In all cases, three pressure readings are obtained in succession and mean values are calculated thereof.
Experiments are carried out in groups of five hypertensive rats in which systolic pressure is determined immediately before and 2, 4, 6 and 8 hr after the intraperitoneal administration of the test compound at a dose of 1 mg/kg. Drugs are diluted from stock solutions with phosphate buffer (Lee et al., Prostaglandins 3:29 [1973]), so as to inject this quantity in a volume of 1 ml/kg. Changes from control blood pressure values are calculated for each interval both in mmHg and in per-cent, and evaluated for significance by means of Wilcoxon's signed rank test (Wilcoxon and Wilcox, Some rapid approximate statistical procedures, Lederle Laboratories, Pearl River [1964]).

The test system of a further experiment is femoral blood flow. In words: Effects on Femoral Blood Flow in the Dog (Test C). Format: in vivo, dog (mongrel). The settings on record: anesthetized dog, intraarterial 0.001 to 10 mcg. The protocol: C. Evaluation of the Effects of Prostaglandin Analogs III on the Femoral Blood Flow in the Dog
The peripheral vasodilator or constrictor effects of test compounds were determined in mongrel dogs of either sex, weighing between 10 and 20 kg anesthestized intravenously with 35 mg/kg of sodium pentobarbital. An external iliac artery was dissected immediately above the femoral arch for a length of approximately 5 cm and a previously calibrated, non-connulating electromagnetic flowmeter sensor with a lumen between 2.5 and 3.5 mm was placed snugly around the vessel. Cannulas were placed in a branch of the artery arising distally to the location of the flowmeter sensor for intraarterial drug administrations, in the contralateral femoral artery for systemic blood pressure recordings and in the trachea for artificial respiration with room air. Femoral blood flow and systemic blood pressure were continuously recorded with an electromagnetic flowmeter and pressure transducer, respectively.
After an adequate control period, test compounds were injected intraarterially at one log-spaced doses ranging from 0.001 to 10 mcg., in a volume of 0.5 ml and at 5 to 10 min intervals. Maximum changes in bloodflow, as well as any variations in blood pressure, were tabulated for each dose in absolute values (ml/min and mmHg). The calculations were made taking as control values those existing immediately before administration of each dose. The direction of the observed change (+ for increase and - for decrease) was also noted. The dose changing bloodflow by 100 ml/min (ED100 ml/min) was calculated graphically and was used for scoring activity as follows: […]

The mark [2] stands for this setting: rat uterus segments, 0.001 to 10.0 mcg/ml, 29° C.

Regarding `COC(=O)CCCCCC[C@H]1C(=O)C[C@@H](O)[C@@H]1/C=C/[C@H](O)C1CC(C2CCC2)C1` (stereo partly drawn) [TR-4882, Methyl 11α,15R-dihydroxy-16,18-methano-19,20-ethano-9-oxoprost-13E-en-1-oate], the EC50 in the experiment with rat uterus (setting [2]) is > 10 µg/mL.

Take `CCC1CC([C@H](O)/C=C/C2C(O)CC(O)C2CCCCCCCO)C1` (stereo partly drawn) [TR-4626, 16,18-Methanoprost-13E-en-1,9α,11α,15S-tetraol]: in the experiment on rat uterus (setting [2]), the “Activity value, Test F: Effects on Rat Uterus (ED50, response of 50% that of carbachol)” value is on record as 0 (>10).

Turning to `CCC1CC(C(O)/C=C/[C@H]2C=CC(=O)[C@@H]2CCCCCCC(=O)OC)C1` (stereo partly shown) [TR-4280, Methyl 15RS-hydroxy-16,18-methano-9-oxoprosta-10,13E-dien-1-oate], the EC50 with rat uterus (setting [2]) was > 10 µg/mL.

Turning to `CCCCC1([C@H](O)/C=C/[C@H]2[C@H](O)CC(=O)[C@@H]2CCCCCCC(=O)OC)CCC1` [TR-4692, Methyl 11α,15R-dihydroxy-9-oxo-16,16-propanoprost-13E-en-1-oate], the ED (50 mmHg) in the experiment with blood pressure lay in the range of 0.00101 to 0.01 mg/kg. In experiment [1], the “Activity value, Test E: Effects on Blood Pressure in Hypertensive Rat (blood pressure decrease)” value is 0. Moreover, the EC50 with rat uterus (setting [2]) was > 10 µg/mL.

As for `CCC1CC([C@H](O)/C=C/[C@H]2C=CC(=O)[C@@H]2CCCCCCCOC(C)=O)C1` (stereo partly drawn) [TR-4565, 1-Acetoxy-15S-hydroxy-16,18-methanoprosta-10,13E-dien-9-one], the “Activity value, Test C: Increase in Canidae Femoral Blood Flow (ED100 ml/min)” value (“Activity value, Test C: Increase” for short) in the experiment on femoral blood flow is recorded as 1 (1.0.-10.0). Further, the ED (50 mmHg) in the experiment on blood pressure is > 0.0101 mg/kg. The EC50 in the experiment on rat uterus (setting [2]) was > 10 µg/mL.

Turning to `O=C1C[C@@H](O)[C@H](/C=C/[C@@H](O)C2CC(CC3CCC3)C2)[C@H]1CCCCCCCO` (stereo partly drawn) [TR-4833, 1,11α,15S-Trihydroxy-16,18-methano-20,20-propanoprost-13E-en-9-one], the EC50 in the experiment with rat uterus (setting [2]) was > 10 µg/mL.

As for `COC(=O)CCCCCC[C@H]1C(=O)C=C[C@@H]1/C=C/[C@@H](O)C1(C)CCC1` [TR-4683, Methyl 16,19-cyclo-15R-hydroxy-16-methyl-20-nor-9-oxoprosta-10,13E-dien-1-oate], the EC50 in the experiment with rat uterus (setting [2]) was > 10 µg/mL.

`CCC1CC([C@@H](O)/C=C/[C@H]2[C@H](O)CC(=O)[C@@H]2CCCCCCO)C1` (relative stereo) [TR-4675, (±)16,18-Methano-1-nor-2,11α,15R-trihydroxyprost-13E-en-9-one]: the “Activity value, Test C: Increase” value in the experiment with femoral blood flow is recorded as 0 (>10.0). Besides, the ED (50 mmHg) in the experiment on blood pressure was > 0.0101 mg/kg. For the same compound, the EC50 in the experiment with rat uterus (setting [2]) is > 10 µg/mL.

As for `CCC1CC(C)([C@H](O)/C=C/[C@H]2[C@H](O)CC(=O)[C@@H]2CCCCCCC(=O)OC)C1` (stereo partly drawn) [TR-4681, Methyl 11α,15R-dihydroxy-16,18-methano-16-methyl-9-oxoprost-13E-en-1-oate], in the experiment with femoral blood flow, the “Activity value, Test C: Increase” value is 2 (0.11-1.0). The ED (50 mmHg) in the experiment on blood pressure is 0.00101 to 0.01 mg/kg. Further, the EC50 with rat uterus (setting [2]) was > 10 µg/mL.

Turning to `C[N+](C)(C)CCOC(N)=O` [carbachol, reference compound], the “magnitude of the second response greater than the first” value in the experiment on rat uterus (carbachol 1 mcg/ml, rat uterus, 10 min interval) was “approximately 10%”.

Regarding `CCC1CC(C)([C@@H](O)/C=C/[C@H]2[C@H](O)CC(=O)[C@@H]2CCCCCCCO)C1` (stereo partly drawn) [TR-4689, 16,18-Methano-16-methyl-1,11α,15S-trihydroxyprost-13E-en-9-one], in the experiment with femoral blood flow, the “Activity value, Test C: Increase” value is listed as 0 (>10.0). The ED (50 mmHg) in the experiment with blood pressure is > 0.0101 mg/kg. The EC50 in the experiment on rat uterus (setting [2]) is > 10 µg/mL.

On to `O=C1C[C@@H](O)[C@H](/C=C/[C@H](O)C2CC(CC3CCC3)C2)[C@H]1CCCCCCCO` (stereo partly drawn) [TR-4832, 1,11α,15R-Trihydroxy-16,18-methano-20,20-propanoprost-13E-en-9-one], for which the EC50 with rat uterus (setting [2]) was > 10 µg/mL.

Turning to `CCC1CC(C)(C(O)/C=C/[C@H]2C=CC(=O)[C@@H]2CCCCCCC(=O)OC)C1` (stereo partly drawn) [TR-4694, Methyl 15R-hydroxy-16,18-methano-16-methyl-9-oxoprosta-10,13E-dien-1-oate], in the experiment on rat uterus (setting [2]), the EC50 is > 10 µg/mL.

As for `COC(=O)CCCCCC[C@H]1C(=O)C[C@@H](O)[C@@H]1/C=C/[C@H](O)C1CC(CC2CCC2)C1` (stereo partly drawn) [TR-4796, Methyl 11α,15R-dihydroxy-16,18-methano-20,20-propano-9-oxoprost-13E-en-1-oate], the EC50 in the experiment on rat uterus (setting [2]) is > 10 µg/mL.

With `COC(=O)CCCCCC[C@H]1C(=O)C[C@@H](O)[C@@H]1/C=C/[C@@H](O)C1CC(C2CCC2)C1` (stereo partly drawn) [TR-4887, Methyl 11α,15S-dihydroxy-16,18-methano-19,20-ethano-9-oxoprost-13E-en-1-oate], the EC50 in the experiment with rat uterus (setting [2]) was > 10 µg/mL.

In the case of `CC1([C@@H](O)/C=C/[C@H]2[C@H](O)CC(=O)[C@@H]2CCCCCCCO)CCC1` [TR-4674, 16,19-Cyclo-16-methyl-20-nor-1,11α,15S-trihydroxyprost-13E-en-9-one], in the experiment on blood pressure, the ED (50 mmHg) is > 0.0101 mg/kg. Besides, the “Activity value, Test E: Effects on Blood Pressure in Hypertensive Rat (blood pressure decrease)” value in experiment [1] was determined as 0. The EC50 in the experiment with rat uterus (setting [2]) was > 10 µg/mL.

As for `O=C1C[C@@H](O)[C@H](/C=C/[C@H](O)C2CC(C3CCC3)C2)[C@H]1CCCCCCCO` (stereo partly drawn) [TR-4881, 1,11α,15R-Trihydroxy-16,18-methano-19,20-ethanoprost-13E-en-9-one], the EC50 in the experiment with rat uterus (setting [2]) is > 10 µg/mL.

Consider `COC(=O)CCCCCC[C@H]1C(=O)C[C@@H](O)[C@@H]1/C=C/[C@@H](O)C1CC(CC2CCC2)C1` (stereo partly drawn) [TR-4797, Methyl 11α,15S-dihydroxy-16,19-methano-20,20-propano-9-oxoprost-13E-en-1-oate], for which, in the experiment on rat uterus (setting [2]), the EC50 is > 10 µg/mL.

Consider `O=C1C[C@@H](O)[C@H](/C=C/[C@@H](O)C2CC(C3CCC3)C2)[C@H]1CCCCCCCO` (stereo partly drawn) [TR-4880, 1,11α,15S-Trihydroxy-16,18-methano-19,20-ethanoprost-13E-en-9-one], for which the EC50 in the experiment on rat uterus (setting [2]) is > 10 µg/mL.

These data come from patent US4220795A, “Cyclobutyl substituted derivatives of prostaglandin analogs” (Miles Laboratories, Inc., priority 1978, dated 1980).
